# Assay results: patent publication EP0102509A1, “Oxamid-acid derivatives, process for their preparation and therapeutical agents containing them” (BASF Aktiengesellschaft, priority 1982, dated 1984)
# Test system: passiven cutanen Anaphylaxie (PCA)
# Test: Passive cutaneous anaphylaxis (PCA) in rats, oral administration
# Assay type: in vivo, Ratte
# Details: for ED50: read-out: Hemmung der PCA ED 50 %; for Hemmung der PCA R.W.: relative potency after oral administration, comparison compound A = 1.00
# Protocol: Die antiallergische Wirkung wurde an Ratten getestet. Zur Prüfung wurde das Modell der passiven cutanen Anaphylaxie (PCA) verwendet: • Narkotisierte männliche Ratten (100 - 140 g) werden durch intradermale Injektion (rasierte Rückenhaut) von 0,1 ml eines Ovalbumin-Antiserums sensibilisiert. Nach einer Sensibilisierüngsdauer von ca. 48 h erfolgt die Behandlung (orale Applikation) mit unterschiedlichen Dosierungen (10 Tiere/Dosis) der Prüfsubstanzen. 15 bzw. 20 min nach der Behandlung wird eine Antigen/Evansblau-Mischung (10 mg/kg Ovalbumin in 2%iger Evansblau-Lösung) den Versuchstieren intravenös injiziert. 30 min später werden die Tiere getötet, die Rückenhaut abgezogen und auf der inneren Oberfläche der Durchmesser der kreisförmigen Blaufärbung gemessen. Die Größe der Farbflecke unbehandelter Kontrolltiere ist standardisierbar. Antiallergisch wirksame Substanzen verkleinern dosisabhängig den Durchmesser der Farbflecke. Als ED-50 % wird die Dosis angegeben, die im Vergleich zu medikamentös unbehandelten Kontrolltieren den Durchmesser der Farbflecke um 50 % herabsetzt.
# [1] = oral administration, rat, dose that reduces the diameter of the dye spots by 50 % vs untreated controls
Compound,"Antiallergische Wirkung (bis 100 mg/kg p.o., rat PCA)",ED50 [1],Hemmung der PCA R.W.,Hemmung der PCA R.W. (listed as Bsp. 2),Hemmung der PCA ED 50 % [1],Hemmung der PCA R.W. (listed as Bsp. 3)
"O=C(O)c1cc(=O)c2c(OCC(O)COc3cccc4oc(C(=O)O)cc(=O)c34)cccc2o1 [Cromolyne, reference compound]",unwirksam,> 100 mg/kg,,,,
"CCOCCOC(=O)C(=O)Nc1cccc(NC(=O)C(=O)OCCOCC)c1 [Beispiel 2, N,N'-(1,3-Phenylen)-dioxamidsäure-2-ethoxyethylester]",,2.77 mg/kg,3.10,"3,10",,
"N,N'-(1,3-Phenylen)-dioxamidsäure-2-butoxyethylester [Beispiel 3]",,,ca. 1.85,,ca. 4.64 mg/kg,"1,85"
